Article PMC3613087, “Aldose Reductase Inhibitory Activity of Compounds from Zea mays L” (BioMed Research International, 2013)
Where two headings read alike, the source gives them in different places.

Legend:
[1] = target: T1, rat lens aldose reductase (RLAR) (Rattus norvegicus, UniProt P07943); assay: Rat lens aldose reductase (RLAR) inhibitory assay, DL-glyceraldehyde as substrate; format: biochemical; conditions: for inhibition at 1 µg/mL: concentration 1 μg/mL; for inhibition at 5 µg/mL: concentration 5 μg/mL; for inhibition at 10 µg/mL: read-out: Inhibition (%) of RLAR; for IC50: least-squares regression of log concentration vs inhibitory activity; for inhibition at 40 µg/mL: concentration 40 μg/mL
T1 construct: from tissue; host or cells: rat lens (Sprague-Dawley) homogenate, partially purified
Experimental: RLAR activity was assayed according to the methods described by Dufrane et al.. […] The rat lens homogenate was prepared according to the method of Hayman and Kinoshita with some modifications. […] The partially purified material was separated into 1.0 mL aliquots and stored at −40°C. […] Each 1.0 mL cuvette contained equal units of enzyme, 0.05 M sodium phosphate buffer (pH 6.2), and 0.3 mM NADPH with or without 10 mM substrate and inhibitor. For inhibition studies, concentrated stocks of AR inhibitors prepared in DMSO were used, and the final concentration of DMSO was not more than 1%.

[2] = test system: galactitol accumulation in rat erythrocytes; assay: Blood culture and intracellular galactitol measurement; format: cell-based; conditions: 30 mM galactose, 50 μg/mL compound, 3 h; for inhibition at 50 µg/mL: Rattus norvegicus, Erythrocyte
Experimental: Blood sample was collected in heparin-containing polypropylene tube from 10-week-old male rats. For sugar and sugar alcohol analysis, erythrocytes from heparinized blood were separated from the plasma and buffy coat by centrifuging at 2000 ×g for 10 min. The cells were washed thrice with normal saline (0.9% NaCl) at 4°C. In the final washing, the cells were centrifuged at 2000 ×g for 10 min to obtain a consistently packed cell preparation. The packed cells (1 mL) were then incubated in a Krebs-Ringer bicarbonate buffer (pH 7.4) containing 30 mM galactose in the presence or absence of samples at 37°C in 5% CO2 for 3 h. The erythrocytes were washed with cold saline by centrifuging at 2000 ×g for 10 min, precipitated by adding 6% of cold perchloric acid (3 mL), and centrifuged again at 2000 ×g for 10 min. The supernatant was neutralized with 2.5 M K2CO3 at 4°C and used for galactitol determination. HPLC analysis for sugar and sugar alcohol in blood was performed with this supernatant of red blood cell homogenate after being benzoylated.

[3] = test system: galactitol accumulation in rat lens; assay: Lens culture and intracellular galactitol measurement; format: cell-based; conditions: 30 mM galactose, compound 5 μg/mL; for Galactitol content μg/lens wet weight (g): mean ± SD of triplicate; for inhibition at 5 µg/mL: Rattus norvegicus
Experimental: Lenses isolated from 10-week-old male rats were cultured for 6 d in TC-199 medium that contained 15% fetal bovine serum 100 U/mL penicillin and 0.1 mg/mL streptomycin under sterile conditions in an atmosphere of 5% CO2 and 95% air at 37°C. Samples were dissolved in DMSO. […] Each lens was placed in well containing 1.0 mL of medium. Lenses from each group were minced in 150 μL of phosphate-buffered saline on ice, homogenized by sonication, and centrifuged at 22.000 g for 10 min at 4°C. The supernatant was filtered through a membrane filter (Ultrafree-MC, nominal molecular weight limit 10,000; Millipore, Bedford, MA, USA) to remove proteins. HPLC analysis for sugar alcohol in lens was performed with this filtrate after being benzoylated.

[4] = target: T2, recombinant human aldose reductase (rhAR) (Homo sapiens, UniProt P15121); assay: Kinetics of rhAR by active compounds (Lineweaver-Burk plots); format: biochemical; conditions: DL-glyceraldehyde 0.1-1.0 mM
T2 construct: purchased Wako Pure Chemical Industries (Osaka, Japan)
Experimental: Reaction mixtures consisted of 0.1 M potassium phosphate, 0.16 mM NADPH, and […] of rhAR with varied concentrations of substrate DL-glyceraldehyde and AR inhibitor in a total volume of 200 μL. Concentrations were ranged from 0.1 to 1.0 mM for DL-glyceraldehyde. rhAR activity was assayed spectrophotometrically by measuring the decrease in absorption of NADPH at 340 nm after substrate addition using Biotek Power Wave XS spectrophotometer (Biotek instruments, VT, USA). K m and V max of rhAR were determined with varying concentrations of DL-glyceraldehyde as a substrate in the absence and presence of different concentrations of inhibitor by Lineweaver-Burk double reciprocal plots. Inhibitory constant (K i) was derived by plotting slopes obtained from Lineweaver-Burk plots versus inhibitors concentration.

[5] = concentration 10 μg/mL, mean of triplicate
[6] = read-out: IC50 (μg/mL) RLAR (converted)

SMILES | inhibition at 1 µg/mL ([1]; mean of triplicate) [%] | inhibition at 5 µg/mL ([1]; mean of triplicate) [%] | inhibition at 10 µg/mL [1, 5] [%] | IC50 ([1]; read-out: IC50 (μM) RLAR) [µM] | IC50 [1, 6] [µM] | Galactitol content (μM) in rat erythrocyte [2] [µM] | inhibition at 50 µg/mL [2] [%] | Galactitol content μg/lens wet weight (g) [3] | inhibition at 5 µg/mL [3] [%] | Inhibition type of rhAR [4] | RLAR inhibitory activity (in words) [1] | inhibition at 40 µg/mL ([1]; mean of triplicate) [%] | inhibition at 10 µg/mL [1] [%]
O=C(O)c1c(O)cc(O)cc1O [2,4,6-trihydroxybenzoic acid (3), 2,4,6-trihydroxybenzoic acid] | 16.9 | 48.1 | 73.7 | 34.8 | 34.8 | – | – | – | – | – | – | – | –
COc1cc(-c2oc3cc(O)cc(O)c3c(=O)c2O[C@@H]2O[C@H](CO)[C@@H](O)[C@H](O)[C@H]2O)ccc1O [3′-methoxyhirsutrin (7), 3′-methoxyhirsutrin] | 16.4 | 73.7 | 89.7 | 5.67 | 5.66 | 20.19 | ~12 | 828.35 ± 73.27 μg/lens wet weight (g) | 1.86 | uncompetitive | – | – | –
O=C(O)CC(=O)OC[C@H]1O[C@@H](Oc2cc3c(O)cc(O)cc3[o+]c2-c2ccc(O)c(O)c2)[C@H](O)[C@@H](O)[C@@H]1O [Cyanidin-3-(6′′-malonylglucoside) (11), cyanidin 3-(6′′-malonylglucoside)] | 19 | 47.8 | 68 | 11.7 | 11.7 | – | – | – | – | – | – | – | –
OC[C@H]1O[C@@H](Oc2cc3c(O)cc(O)cc3[o+]c2-c2ccc(O)c(O)c2)[C@H](O)[C@@H](O)[C@@H]1O [Cyanidin-3-glucoside (8), cyanidin-3-glucoside] | – | – | – | – | > 89 | – | – | – | – | – | did not RLAR inhibitory activity | 47.7 | –
COc1cc(/C=C/C(=O)O)ccc1O [Ferulic acid (5), ferulic acid] | 11.2 | 49.8 | 77.2 | 21.9 | 21.8 | – | – | – | – | – | – | – | –
O=c1c(O[C@@H]2O[C@H](CO)[C@@H](O)[C@H](O)[C@H]2O)c(-c2ccc(O)c(O)c2)oc2cc(O)cc(O)c12 [Hirsutrin (6), hirsutrin] | 27.6 | 76.2 | 86.7 | 4.78 | 4.78 | 15.70 | ~32.5 | 558.92 ± 89.12 μg/lens wet weight (g) | ~33.8 | competitive | – | – | –
OC[C@H]1O[C@@H](Oc2cc3c(O)cc(O)cc3[o+]c2-c2ccc(O)cc2)[C@H](O)[C@@H](O)[C@@H]1O [Pelargonidin-3-glucoside (9), pelargonidin-3-glucoside] | – | – | – | – | > 92.3 | – | – | – | – | – | did not RLAR inhibitory activity | 13.2 | –
COc1cc(-c2[o+]c3cc(O)cc(O)c3cc2O[C@@H]2O[C@H](CO)[C@@H](O)[C@H](O)[C@H]2O)ccc1O [Peonidin-3-glucoside (10), peonidin-3-glucoside] | – | – | – | – | > 86.3 | – | – | – | – | – | did not RLAR inhibitory activity | 37 | –
O=C(O)c1ccc(O)c(O)c1 [Protochatechuic acid (1), protocatechuic acid] | – | – | – | – | > 64.9 | – | – | – | – | – | – | – | 3.22
O=c1c(O)c(-c2ccc(O)c(O)c2)oc2cc(O)cc(O)c12 [Quercetin, quercetin, reference compound] | 30.3 | 67.9 | 83 | – | – | 16.15 | 30.5 | 448.81 ± 69.43 μg/lens wet weight (g) | 46.8 | – | – | – | –
COc1cc(C(=O)O)ccc1O [Vanillic acid (2), vanillic acid] | – | – | 20.3 | – | > 59.5 | – | – | – | – | – | – | – | –
O=C(O)C=Cc1ccc(O)cc1 [p-hydroxycinnamic acid (4), p-hydroxycinnamic acid] | 13.8 | 43.7 | 77.8 | 36.7 | 36.7 | – | – | – | – | – | – | – | –
O=C(O)CC(=O)OC[C@H]1O[C@@H](Oc2cc3c(O)cc(O)cc3[o+]c2-c2ccc(O)cc2)[C@H](O)[C@@H](O)[C@@H]1O [pelargonidin 3-(6′′-malonylglucoside)] | – | – | – | – | > 19.3 | – | – | – | – | – | did not RLAR inhibitory activity | – | –
